What was measured:
Type in all cases: in vivo
[1] = system: sicklepod (Cassia obtusifolia, CASOB); assay: Post-emerge test, greenhouse herbicide activity screening; details: post-emerge, 63 g ai/ha, 14 days after application, rating scale 0-100
How it was run: (§1)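 Visual ratings on a 0-100 scale (0 no damage, 100 all plants dead) were taken at 14 days after treatment. Rates of 15-1000 g ai/ha in acetone, 187 l/ha, were sprayed onto soil one day after planting (pre-emerge) or onto 2-3 leaf plants with 0.25% v/v surfactant (post-emerge).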

[2] = system: velvetleaf (Abutilon theophrasti, ABUTH); assay: as above; details: post-emerge, 14 days after application, rating scale 0-100
How it was run: as §1

[3] = system: redroot pigweed (Amaranthus retroflexus, AMARE); assay: as above; details: post-emerge, 14 days after application
How it was run: as §1

[4] = system: common ragweed (Ambrosia artemisizfolia L., AMBEL); assay: as above; details: post-emerge, 14 days after application, rating scale 0-100
How it was run: as §1

[5] = system: barnyardgrass (Echinochloa crus-galli, ECHCG); assay: as above; details: post-emerge, 14 days after application, rating scale 0-100
How it was run: as §1

[6] = system: lambsquarters (Chenopodium album, CHEAL); assay: as above; details: post-emerge, 14 days after application, rating scale 0-100
How it was run: as §1

[7] = system: ivyleaf morningglory (Ipomoea hederacea, IPOHE); assay: as above; details: post-emerge, 14 days after application, rating scale 0-100
How it was run: as §1

[8] = system: johnsongrass (Sorghum halepense, SORHA); assay: as above; details: post-emerge, 14 days after application, rating scale 0-100
How it was run: as §1

[9] = system: large crabgrass (Digitaria sanguinalis, DIGSA); assay: as above; details: post-emerge, 14 days after application, rating scale 0-100
How it was run: as §1

[10] = system: green foxtail (Setaria viridis, SETVI); assay: as above; details: post-emerge, 14 days after application, rating scale 0-100
How it was run: as §1

[11] = system: sicklepod (Cassia obtusifolia, CASOB); assay: Pre-emerge test, greenhouse herbicide activity screening; details: phytotoxicity rating 0-100, 14 days after application
How it was run: (§2)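 Compounds in acetone were track-sprayed at 187 l/ha, 15–1000 g ai/ha, onto sandy loam pots. Pre-emerge seeds were sown one day before spraying, with surface watering afterwards. Post-emerge plants were at the 2–3 leaf stage and sprayed with 0.25% v/v non-ionic surfactant. Injury was rated 0–100 at 14 days.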

[12] = system: velvetleaf (Abutilon theophrasti, ABUTH); assay: as above; details: phytotoxicity rating 0-100, 14 days after application
How it was run: as §2

[13] = system: common ragweed (Ambrosia artemisizfolia L., AMBEL); assay: as above; details: phytotoxicity rating 0-100, 14 days after application
How it was run: as §2

[14] = system: barnyardgrass (Echinochloa crus-galli, ECHCG); assay: as above; details: phytotoxicity rating 0-100, 14 days after application
How it was run: as §2

[15] = system: lambsquarters (Chenopodium album, CHEAL); assay: as above; details: phytotoxicity rating 0-100, 14 days after application
How it was run: as §2

[16] = system: ivyleaf morningglory (Ipomoea hederacea, IPOHE); assay: as above; details: phytotoxicity rating 0-100, 14 days after application
How it was run: as §2

[17] = system: johnsongrass (Sorghum halepense, SORHA); assay: as above; details: phytotoxicity rating 0-100, 14 days after application
How it was run: as §2

[18] = system: large crabgrass (Digitaria sanguinalis, DIGSA); assay: as above; details: phytotoxicity rating 0-100, 14 days after application
How it was run: as §2

[19] = system: green foxtail (Setaria viridis, SETVI); assay: as above; details: phytotoxicity rating 0-100, 14 days after application
How it was run: as §2

[20] = system: field corn (Zea mays L., var. Dekalb 535, CORN); assay: Post-emerge test, crop safety; details: post-emerge, 14 days after application, rating scale 0-100
How it was run: as §2

[21] = system: upland rice (Oryza sp., var. Tebonnet, RICE); assay: Post-emerge test, crop safety; details: post-emerge, 14 days after application, rating scale 0-100
How it was run: as §2

[22] = system: redroot pigweed (Amaranthus retroflexus, AMARE); assay: Pre-emerge test, greenhouse herbicide activity screening; details: phytotoxicity rating 0-100, 14 days after application
How it was run: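 Sandy loam pots; pre-emerge: sown 1 d pre-spray, surface-watered after, then bottom-watered. Post-emerge: sown 8–21 d before, 2–3 leaf stage, + 0.25% v/v NIS, bottom-watered. Acetone, 187 l/ha track spray, 15–1000 g ai/ha. 0–100 injury score, day 14.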

[23] = system: field corn (Zea mays L., var. Dekalb 535, CORN); assay: Pre-emerge test, crop safety; details: crop damage rating 0-100, 14 days after application
How it was run: (§3)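 Plants grown in 10 cm pots of sandy loam mix received acetone-dissolved compounds through a moving flat-fan nozzle. Doses ranged from 15 to 1000 g ai/ha. Pre-emerge pots were seeded one day earlier, post-emerge pots 8–21 days earlier. Fourteen days on, each pot was graded 0–100 for damage.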

[24] = system: upland rice (Oryza sp., var. Tebonnet, RICE); assay: Pre-emerge test, crop safety; details: crop damage rating 0-100, 14 days after application
How it was run: as §3

SMILES: Cn1c(C(F)(F)F)cc(=O)n(-c2ccc(Cl)cc2NC(=O)C2CC2)c1=O [2-204]
- phytotoxicity rating CASOB [1]: 10
- phytotoxicity rating ABUTH ([2]; 63 g ai/ha): 40
- phytotoxicity rating ABUTH ([2]; 250 g ai/ha): 80
- phytotoxicity rating AMARE ([3]; 63 g ai/ha, rating scale 0-100 (0 no damage, 100 complete death)): 50
- phytotoxicity rating AMARE ([3]; 250 g ai/ha, rating scale 0-100): 70
- phytotoxicity rating AMBEL ([4]; 63 g ai/ha): 10
- phytotoxicity rating AMBEL ([4]; 250 g ai/ha): 70
- phytotoxicity rating ECHCG ([5]; 63 g ai/ha): 0
- phytotoxicity rating ECHCG ([5]; 250 g ai/ha): 0
- phytotoxicity rating CHEAL ([6]; 63 g ai/ha): 20
- phytotoxicity rating CHEAL ([6]; 250 g ai/ha): 95
- phytotoxicity rating IPOHE ([7]; 63 g ai/ha): 30
- phytotoxicity rating IPOHE ([7]; 250 g ai/ha): 60
- phytotoxicity rating SORHA ([8]; 63 g ai/ha): 0
- phytotoxicity rating SORHA ([8]; 250 g ai/ha): 0
- phytotoxicity rating DIGSA ([9]; 63 g ai/ha): 0
- phytotoxicity rating DIGSA ([9]; 250 g ai/ha): 10
- phytotoxicity rating SETVI ([10]; 63 g ai/ha): 0
- phytotoxicity rating SETVI ([10]; 250 g ai/ha): 20
- Pre-emerge Herbicidal Activity CASOB ([11]; 63 g ai/ha): 60
- Pre-emerge Herbicidal Activity CASOB ([11]; 250 g ai/ha): 75
- Pre-emerge Herbicidal Activity ABUTH ([12]; 63 g ai/ha): 99
- Pre-emerge Herbicidal Activity ABUTH ([12]; 250 g ai/ha): 100
- Pre-emerge Herbicidal Activity AMBEL ([13]; 63 g ai/ha): 50
- Pre-emerge Herbicidal Activity AMBEL ([13]; 250 g ai/ha): 85
- Pre-emerge Herbicidal Activity ECHCG ([14]; 63 g ai/ha): 20
- Pre-emerge Herbicidal Activity ECHCG ([14]; 250 g ai/ha): 70
- Pre-emerge Herbicidal Activity CHEAL ([15]; 63 g ai/ha): 70
- Pre-emerge Herbicidal Activity CHEAL ([15]; 250 g ai/ha): 100
- Pre-emerge Herbicidal Activity IPOHE ([16]; 63 g ai/ha): 50
- Pre-emerge Herbicidal Activity IPOHE ([16]; 250 g ai/ha): 100
- Pre-emerge Herbicidal Activity SORHA ([17]; 63 g ai/ha): 40
- Pre-emerge Herbicidal Activity SORHA ([17]; 250 g ai/ha): 80
- Pre-emerge Herbicidal Activity DIGSA ([18]; 63 g ai/ha): 35
- Pre-emerge Herbicidal Activity DIGSA ([18]; 250 g ai/ha): 100
- Pre-emerge Herbicidal Activity SETVI ([19]; 63 g ai/ha): 95
- Pre-emerge Herbicidal Activity SETVI ([19]; 250 g ai/ha): 99
- phytotoxicity rating CORN (crop damage) ([20]; 63 g ai/ha): 5
- phytotoxicity rating CORN (crop damage) ([20]; 250 g ai/ha): 10
- phytotoxicity rating RICE (crop damage) ([21]; 63 g ai/ha): 0
- phytotoxicity rating RICE (crop damage) ([21]; 250 g ai/ha): 30
- Pre-emerge Herbicidal Activity AMARE ([22]; 63 g ai/ha): 100
- Pre-emerge Herbicidal Activity AMARE ([22]; 250 g ai/ha): 100
- Pre-emerge Herbicidal Activity CORN ([23]; 63 g ai/ha): 50
- Pre-emerge Herbicidal Activity CORN ([23]; 250 g ai/ha): 70
- Pre-emerge Herbicidal Activity RICE ([24]; 63 g ai/ha): 0
- Pre-emerge Herbicidal Activity RICE ([24]; 250 g ai/ha): 30
